Laboratory results reported in patent US8338420B1, “Treatment of Parkinson's disease and enhancement of dopamine signal using PDE 10 inhibitor” (Mitsubishi Tanabe Pharma Corporation, priority 2002, dated 2012).

Key:
[1] = tested on: PDE10 (PDE10A); assay: Measurement of PDE10 inhibitory activity (radiolabeled nucleotide PDE assay); format: biochemical, bovine; settings: versus PDE1, 2, 3, 4, 5, 6, 7, 8, 9 and 11; IC50 value of 1/100 or less
Excerpt: (1) Enzyme Preparation of PDE10 (PDE10A)
According to the methods described in Fujishige et al. (Fujishige et al., Eur. J. Biochem., vol. 266, pp. 1118-1127, 1999; and Mukai et al., Br. J. Pharmacol., vol. 111, pp. 389-390, 1994), the enzyme PDE10A was isolated and prepared as follows.
At first, corpus striatum was excised from bovine whole brain (Japanese Black Cattle, purchased from Tokyo Shibaura Zoki, co., Ltd.), and washed with ice-cold saline (0.9% sodium chloride). After the tissues were cut in a proper size, it was frozen by liquid nitrogen, and stored at −80° C. […]
The PDE assay was performed using the enzyme solution obtained in the above (1), and inhibitory activities of the compounds on PDE10 (PDE10A) were measured. […]
After the reaction was carried out while keeping the temperature at 37° C. for 30 minutes, the reaction was stopped by boiling the reaction mixture for 2 minutes, and further added thereto was 100 μl of snake venom (Crotalus atrox snake venom 1 mg/ml) and the temperature was kept at 37° C. for 30 minutes. […] Scintillation cocktail was added to each of the eluates, and the radioactivity was measured by scintillation counter. From them, PDE activity taking cAMP as a substrate (an activity to hydrolyze cAMP) was measured. […]

[2] = molecular target: T1, PDE5 (Canis lupus familiaris, UniProt O77746); assay: PDE assay, PDE5 enzyme solution from canine lung; format: biochemical; settings: substrate about 12 nM [3H]-cGMP and 1 μM cGMP
T1 construct: These were used as a PDE5 enzyme solution for PDE assay; tissue Oriental Yeast (animals); host or cells: canine lung, soluble fraction, DEAE Sepharose fractions
Experimental: In the same manner as in (1-4) above, the supernatant obtained from the homogenate of canine lung tissue was applied to chromatography under FLPC system, to collect eluted fractions of 2 ml each.
Subsequently, the eluted fractions were used as an enzyme solution for PDE assay, and cGMP-hydrolyzing activity was measured for respective fractions, in the presence or absence of E4021, the PDE5 specific inhibitor.
Further, for examining contamination of PDE1, which is adjacently eluted, cGMP-hydrolyzing PDE activity of the respective fractions were measured in the same assay buffer containing EGTA (final concentration of 1 mM) [or calcium chloride (final concentration of 2 mM) and calmodulin (40 units/ml)].
These fractions were collected and glycerol was added thereto to become 50%, and the mixture was stored at −20° C. These were used as a PDE5 enzyme solution for PDE assay.

[3] = Brain uptake (integration plot method, PS) and PDE10 binding occupancy in the brain; format: in vivo; settings: rat, 1 mg/kg, i.v.
Excerpt: Different from other tissue, the brain has the blood brain barrier (BBB) to restrict and regulate the movement of molecules between the blood and the brain. BBB consists of brain capillary endothelial cells. The brain capillary endothelial cells are connected through tight junction, and nutrients and drugs in the blood are required to pass transcellularly through the brain capillary endothelial cells. As a mechanism for the drugs to pass through the BBB, there are mentioned the following five routes; 1) passive diffusion, 2) carrier-mediated transport, 3) receptor-mediated transcytosis, 4) absorptive-mediated transcytosis and 5) active efflux transport by P-glycoprotein. The rate of the compound to pass through the BBB and enter the brain (PS) via one or plurals of these mechanisms can be measured by known in vivo experimental assays such as in situ brain perfusion, integration plot method, etc., or by the known in vitro experimental assays such as primary cultured brain capillary endothelial cells, or an established immortalized brain capillary endothelial cell line, etc. […]
Further, Compound A (1 mg/kg, i.v.) was intravenously administered to rat, and according to integration plot method, a rate (PS) was measured for Compound A to enter the brain by passing through the blood brain barrier (BBB), and occupancy of PDE10 binding in the brain was analyzed.

IC50 [2]: > 1 µM
Compound: COc1ccc(-c2cc(N3CCCC3)nc(/C=C/c3nc(-n4ccnc4)c4ccccc4n3)n2)cc1OC [Compound A, 2-{(E)-2-[4-(1-imidazolyl)-quinazolin-2-yl]}ethenyl-4-(3,4-dimethoxy)phenyl-6-(pyrrolidin-1-yl)pyrimidine]
inhibitory activity on PDE10 as compared to other PDE families (selectivity) [1]: ≥ 100 times
occupancy of PDE10 binding in the brain [3]: excellent PDE10 binding behaviors inside the brain
brain uptake and penetration (rate PS through the BBB) ([3]; integration plot method): good brain uptake and penetration characteristics
